Results from ChEMBL document CHEMBL1201862, “PubChem BioAssay data set” (2004).
Calls of active or inactive are those of the source.

Key:
[1] = target: Potassium voltage-gated channel subfamily KQT member 2 (Rattus norvegicus, UniProt O88943); test: blockers of KCNQ2 channel current – cell-based, automated electrophysiology, set II, rat KCNQ2, dose response (AID 588637); format: functional
[2] = target: Tyrosine-protein phosphatase non-receptor type 11 (Homo sapiens, UniProt Q06124); test: PTPN11 enzyme inhibitors – biochemical, selectivity assay for STEP inhibitor project, dose response (AID 602367); format: functional; details: read-out: IC50_Mean
Chain of Tyrosine-protein phosphatase non-receptor type 11 (Q06124 whole entry): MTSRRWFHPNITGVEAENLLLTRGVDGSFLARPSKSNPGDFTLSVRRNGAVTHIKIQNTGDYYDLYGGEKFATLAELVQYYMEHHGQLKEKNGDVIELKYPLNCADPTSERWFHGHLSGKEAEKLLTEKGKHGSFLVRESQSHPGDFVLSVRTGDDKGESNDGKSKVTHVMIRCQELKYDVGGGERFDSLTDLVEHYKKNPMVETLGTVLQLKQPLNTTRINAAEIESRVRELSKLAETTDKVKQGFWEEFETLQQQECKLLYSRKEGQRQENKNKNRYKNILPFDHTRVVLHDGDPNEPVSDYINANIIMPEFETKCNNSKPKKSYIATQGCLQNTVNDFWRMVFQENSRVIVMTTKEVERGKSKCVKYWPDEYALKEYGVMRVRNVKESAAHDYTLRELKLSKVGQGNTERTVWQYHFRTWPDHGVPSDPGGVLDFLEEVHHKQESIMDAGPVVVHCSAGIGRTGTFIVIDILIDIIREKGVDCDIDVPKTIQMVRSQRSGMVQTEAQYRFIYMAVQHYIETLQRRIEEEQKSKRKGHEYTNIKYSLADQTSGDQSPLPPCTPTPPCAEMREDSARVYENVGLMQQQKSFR

[3] = target: Tyrosine-protein phosphatase non-receptor type 5 (Homo sapiens, UniProt P54829); test: PTPN5 enzyme inhibition – biochemical, fluorescence intensity, uHTS hits, confirmation (AID 602372); format: functional; details: read-out: IC50_Mean
Chain of Tyrosine-protein phosphatase non-receptor type 5 (P54829 whole entry): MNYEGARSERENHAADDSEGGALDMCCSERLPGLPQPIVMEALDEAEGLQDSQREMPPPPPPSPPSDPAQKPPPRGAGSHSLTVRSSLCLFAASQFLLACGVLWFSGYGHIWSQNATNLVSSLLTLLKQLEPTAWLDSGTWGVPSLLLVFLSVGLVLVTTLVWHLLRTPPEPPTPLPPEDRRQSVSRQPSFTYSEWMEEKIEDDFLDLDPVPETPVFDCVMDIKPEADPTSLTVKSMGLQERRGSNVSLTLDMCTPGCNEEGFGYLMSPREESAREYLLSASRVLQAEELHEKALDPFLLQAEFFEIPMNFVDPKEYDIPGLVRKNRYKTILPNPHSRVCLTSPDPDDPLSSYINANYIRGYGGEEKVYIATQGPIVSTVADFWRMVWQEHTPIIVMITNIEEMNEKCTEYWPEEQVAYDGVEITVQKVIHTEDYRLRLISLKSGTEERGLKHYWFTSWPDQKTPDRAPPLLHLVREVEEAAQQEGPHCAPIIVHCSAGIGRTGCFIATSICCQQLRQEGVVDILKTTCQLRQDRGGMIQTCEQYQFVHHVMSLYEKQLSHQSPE

[4] = target: Dual specificity protein phosphatase 3 (Homo sapiens, UniProt P51452); test: VHR phosphatase inhibition, dose response, selectivity assay for STEP inhibitor project, biochemical (AID 602374); format: functional; details: read-out: IC50_Mean
Chain of Dual specificity protein phosphatase 3 (P51452 whole entry): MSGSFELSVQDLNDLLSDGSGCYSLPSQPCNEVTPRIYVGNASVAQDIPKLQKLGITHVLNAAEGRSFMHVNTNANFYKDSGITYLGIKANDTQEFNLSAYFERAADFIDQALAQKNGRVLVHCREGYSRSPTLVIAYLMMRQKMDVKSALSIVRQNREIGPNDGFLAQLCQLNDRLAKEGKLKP

[5] = target: T1, Tyrosine-protein phosphatase non-receptor type 22 (Homo sapiens, UniProt Q9Y2R2); test: lymphoid phosphatase LYP inhibitors – biochemical, selectivity assay for STEP inhibitor project, dose response (AID 624241); format: functional
T1 sequence (Q9Y2R2 whole entry): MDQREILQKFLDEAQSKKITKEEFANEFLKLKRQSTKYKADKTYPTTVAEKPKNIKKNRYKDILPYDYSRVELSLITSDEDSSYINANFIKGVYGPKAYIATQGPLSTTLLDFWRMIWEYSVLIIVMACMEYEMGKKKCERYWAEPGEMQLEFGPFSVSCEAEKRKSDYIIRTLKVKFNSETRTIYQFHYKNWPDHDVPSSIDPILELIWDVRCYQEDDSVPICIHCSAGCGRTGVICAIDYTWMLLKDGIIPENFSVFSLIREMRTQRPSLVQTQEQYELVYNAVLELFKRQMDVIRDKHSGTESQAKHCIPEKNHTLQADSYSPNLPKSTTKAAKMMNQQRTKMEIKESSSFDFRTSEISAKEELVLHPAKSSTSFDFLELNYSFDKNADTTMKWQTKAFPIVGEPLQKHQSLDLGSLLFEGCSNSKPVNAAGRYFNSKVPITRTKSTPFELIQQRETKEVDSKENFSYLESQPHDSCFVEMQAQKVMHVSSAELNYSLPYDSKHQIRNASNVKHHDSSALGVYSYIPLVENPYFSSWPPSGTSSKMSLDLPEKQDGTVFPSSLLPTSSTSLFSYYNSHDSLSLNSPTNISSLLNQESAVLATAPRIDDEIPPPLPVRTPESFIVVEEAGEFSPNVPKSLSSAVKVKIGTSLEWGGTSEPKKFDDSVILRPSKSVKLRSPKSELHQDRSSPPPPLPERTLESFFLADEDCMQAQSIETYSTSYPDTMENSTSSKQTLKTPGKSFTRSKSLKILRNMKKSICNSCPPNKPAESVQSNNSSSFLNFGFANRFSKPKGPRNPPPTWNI

[6] = target: Photoreceptor-specific nuclear receptor (Homo sapiens, UniProt Q9Y5X4); format: functional, cell-based;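 further: CHO-S cells with Gal4-NCOR and VP16-NR2E3 two-hybrid luciferase reporter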
Chain of Photoreceptor-specific nuclear receptor (Q9Y5X4 whole entry, the tested form may be a part): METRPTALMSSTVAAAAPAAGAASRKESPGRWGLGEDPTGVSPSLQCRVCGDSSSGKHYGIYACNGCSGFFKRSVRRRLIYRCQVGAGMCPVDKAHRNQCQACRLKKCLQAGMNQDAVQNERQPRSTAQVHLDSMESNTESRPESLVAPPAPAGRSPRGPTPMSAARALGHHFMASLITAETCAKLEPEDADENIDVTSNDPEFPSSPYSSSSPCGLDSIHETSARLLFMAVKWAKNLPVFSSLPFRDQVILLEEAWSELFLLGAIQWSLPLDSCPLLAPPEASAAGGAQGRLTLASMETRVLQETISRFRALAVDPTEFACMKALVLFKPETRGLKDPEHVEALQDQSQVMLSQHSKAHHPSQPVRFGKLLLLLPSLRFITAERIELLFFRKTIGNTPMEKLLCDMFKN

[7] = target: Nuclear receptor subfamily 5 group A member 2 (Homo sapiens, UniProt O00482); format: functional, cell-based;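 further: HEK293T cells transfected with LRH-1 and a StAR promoter luciferase reporter; potency for inhibitors that lower LRH-1 driven reporter light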
Chain of Nuclear receptor subfamily 5 group A member 2 (O00482 whole entry): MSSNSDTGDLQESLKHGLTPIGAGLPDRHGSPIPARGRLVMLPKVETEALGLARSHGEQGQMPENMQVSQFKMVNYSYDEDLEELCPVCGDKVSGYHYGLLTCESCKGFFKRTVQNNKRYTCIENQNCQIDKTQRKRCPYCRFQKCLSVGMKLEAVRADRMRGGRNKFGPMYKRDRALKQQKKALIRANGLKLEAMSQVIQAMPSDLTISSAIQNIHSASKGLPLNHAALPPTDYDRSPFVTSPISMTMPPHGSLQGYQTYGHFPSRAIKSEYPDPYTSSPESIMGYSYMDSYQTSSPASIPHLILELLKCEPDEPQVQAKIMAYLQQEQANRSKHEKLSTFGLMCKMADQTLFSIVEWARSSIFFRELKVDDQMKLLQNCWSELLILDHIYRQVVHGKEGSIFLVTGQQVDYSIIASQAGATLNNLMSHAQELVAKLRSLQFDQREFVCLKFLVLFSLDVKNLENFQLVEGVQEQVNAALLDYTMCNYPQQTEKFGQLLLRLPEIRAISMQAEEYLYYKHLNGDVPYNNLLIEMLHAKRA

Steroidogenic factor 1 = Steroidogenic factor 1 (Homo sapiens, UniProt Q13285); test: Counterscreen for inverse agonists of the liver receptor homolog-1 (LRH-1; NR5A2): Luminescence-based cell-based high throughput dose response assay to identify inverse agonists of the Steroidogenic Factor 1 Nuclear Receptor (SF1; NR5A1).; format: functional
Chain of Steroidogenic factor 1 (Q13285 whole entry): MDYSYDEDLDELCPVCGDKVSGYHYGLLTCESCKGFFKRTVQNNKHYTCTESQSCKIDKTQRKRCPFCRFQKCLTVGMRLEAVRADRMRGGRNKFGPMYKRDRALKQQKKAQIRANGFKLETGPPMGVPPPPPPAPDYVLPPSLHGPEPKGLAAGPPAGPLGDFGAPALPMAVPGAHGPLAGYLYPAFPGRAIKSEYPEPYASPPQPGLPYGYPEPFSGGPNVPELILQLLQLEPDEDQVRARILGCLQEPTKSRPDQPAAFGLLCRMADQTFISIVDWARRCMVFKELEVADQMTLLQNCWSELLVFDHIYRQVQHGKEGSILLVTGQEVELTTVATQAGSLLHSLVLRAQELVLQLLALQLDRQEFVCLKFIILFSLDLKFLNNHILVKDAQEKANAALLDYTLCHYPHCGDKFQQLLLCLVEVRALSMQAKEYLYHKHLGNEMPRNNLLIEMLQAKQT

[8] = nonselective StAR promoter luciferase inhibitors – cell-based, luminescence, luciferase reporter, counter-screen for LRH-1 inverse agonist project, dose response (AID 651969); format: functional
[9] = reduction of Shn3 3'UTR-driven luciferase in osteoblasts – cell-based, Clone20 osteoblasts, firefly luciferase, cherry-picked, dose response (AID 624132); format: functional;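 further: firefly luciferase luminescence from reporter carrying the Shn3 3'UTR in osteoblasts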
[10] = loss of viability in HepG2 cells – cell-based, CellTiter-Glo, cherry-picked, cytotoxicity control for Shn3 inhibitor project, dose response (AID 624134); format: functional
[11] = non-specific 3'UTR reporter inhibition in Clone20-Shn3RL – cell-based, Renilla luciferase, cherry-picked, counter-screen for Shn3 inhibitor project, dose response (AID 624133); format: functional
[12] = Fluorescence-based cell-based high throughput dose response assay for inhibitors of the interaction of nucleotide-binding oligomerization domain containing 2 (NOD2) and the receptor-interacting serine-threonine kinase 2 (RIPK2).; format: functional; details: Homo sapiens
Beta Lactamase = Beta Lactamase (Pseudomonas aeruginosa, UniProt Q932Y6); test: BLA reporter interference, concentration series – BLA reporter cells, FRET fluorescence, artefact control for NOD2-RIPK2 interaction inhibitor project, dose response (AID 651552); format: functional, cell-based
Chain of Beta Lactamase (Q932Y6 whole entry): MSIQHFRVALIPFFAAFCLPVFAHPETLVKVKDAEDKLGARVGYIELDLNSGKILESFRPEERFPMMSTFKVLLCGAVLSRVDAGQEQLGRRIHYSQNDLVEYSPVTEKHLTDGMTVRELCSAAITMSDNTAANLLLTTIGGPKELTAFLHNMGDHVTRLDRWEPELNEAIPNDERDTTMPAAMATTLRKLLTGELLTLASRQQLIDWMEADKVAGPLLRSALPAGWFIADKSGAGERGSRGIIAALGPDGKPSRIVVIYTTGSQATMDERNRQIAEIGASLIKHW

Paired box protein Pax-8 = Paired box protein Pax-8 (Homo sapiens, UniProt Q06710); test: PAX8 transcriptional activity inhibition in RMG-I – RMG-I cells, luciferase, cherry-pick, dose response (AID 687027); format: functional, cell-based;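 further: luciferase reporter driven by Pax8 target thyroperoxidase promoter measured by SteadyGlo luminescence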
Chain of Paired box protein Pax-8 (Q06710 whole entry): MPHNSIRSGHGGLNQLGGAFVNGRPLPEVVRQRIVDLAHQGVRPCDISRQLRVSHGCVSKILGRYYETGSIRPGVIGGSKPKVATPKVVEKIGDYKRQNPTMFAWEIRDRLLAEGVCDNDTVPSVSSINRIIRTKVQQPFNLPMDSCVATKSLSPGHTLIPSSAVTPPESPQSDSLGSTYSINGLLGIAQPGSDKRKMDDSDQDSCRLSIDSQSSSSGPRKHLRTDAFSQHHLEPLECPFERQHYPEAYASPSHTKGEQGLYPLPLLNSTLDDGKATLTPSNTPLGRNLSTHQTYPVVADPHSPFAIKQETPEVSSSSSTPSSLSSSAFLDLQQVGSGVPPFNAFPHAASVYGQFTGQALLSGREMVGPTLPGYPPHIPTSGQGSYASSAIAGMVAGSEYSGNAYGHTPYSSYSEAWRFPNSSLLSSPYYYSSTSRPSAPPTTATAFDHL

[13] = general cell-killing toxicity readout – plate reader, dry powder samples, cytotoxicity control for PAX8 inhibitor project, dose response (AID 743021); format: functional, cell-based
[14] = target: T2, Sentrin-specific protease 8 (Homo sapiens, UniProt Q96LD8); format: functional
T2 sequence (Q96LD8 whole entry): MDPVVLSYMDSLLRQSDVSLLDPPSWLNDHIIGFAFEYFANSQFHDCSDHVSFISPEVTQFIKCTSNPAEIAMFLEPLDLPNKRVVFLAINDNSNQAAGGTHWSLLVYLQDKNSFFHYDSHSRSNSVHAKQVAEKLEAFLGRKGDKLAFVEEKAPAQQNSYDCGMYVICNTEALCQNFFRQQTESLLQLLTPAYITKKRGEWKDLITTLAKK

[15] = target: T2, Sentrin-specific protease 8; format: functional; remark: listed apart in the source
Caspase-3 = target: T3, Caspase-3 (Homo sapiens, UniProt P42574); test: Dose-response confirmation of uHTS inhibitor hits of Sentrin-Specific Protease 8 in a Caspase-3 Fluorescence assay.; format: functional
T3 sequence (P42574 whole entry): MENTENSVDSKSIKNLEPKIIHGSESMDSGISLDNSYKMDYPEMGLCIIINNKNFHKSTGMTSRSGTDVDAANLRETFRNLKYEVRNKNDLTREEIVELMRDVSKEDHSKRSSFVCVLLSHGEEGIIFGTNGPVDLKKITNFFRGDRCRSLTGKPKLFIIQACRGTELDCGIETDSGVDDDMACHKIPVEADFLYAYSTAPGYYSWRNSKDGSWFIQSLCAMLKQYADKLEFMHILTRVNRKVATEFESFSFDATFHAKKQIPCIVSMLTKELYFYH

Chain of Potassium voltage-gated channel subfamily KQT member 2 (O88943 whole entry): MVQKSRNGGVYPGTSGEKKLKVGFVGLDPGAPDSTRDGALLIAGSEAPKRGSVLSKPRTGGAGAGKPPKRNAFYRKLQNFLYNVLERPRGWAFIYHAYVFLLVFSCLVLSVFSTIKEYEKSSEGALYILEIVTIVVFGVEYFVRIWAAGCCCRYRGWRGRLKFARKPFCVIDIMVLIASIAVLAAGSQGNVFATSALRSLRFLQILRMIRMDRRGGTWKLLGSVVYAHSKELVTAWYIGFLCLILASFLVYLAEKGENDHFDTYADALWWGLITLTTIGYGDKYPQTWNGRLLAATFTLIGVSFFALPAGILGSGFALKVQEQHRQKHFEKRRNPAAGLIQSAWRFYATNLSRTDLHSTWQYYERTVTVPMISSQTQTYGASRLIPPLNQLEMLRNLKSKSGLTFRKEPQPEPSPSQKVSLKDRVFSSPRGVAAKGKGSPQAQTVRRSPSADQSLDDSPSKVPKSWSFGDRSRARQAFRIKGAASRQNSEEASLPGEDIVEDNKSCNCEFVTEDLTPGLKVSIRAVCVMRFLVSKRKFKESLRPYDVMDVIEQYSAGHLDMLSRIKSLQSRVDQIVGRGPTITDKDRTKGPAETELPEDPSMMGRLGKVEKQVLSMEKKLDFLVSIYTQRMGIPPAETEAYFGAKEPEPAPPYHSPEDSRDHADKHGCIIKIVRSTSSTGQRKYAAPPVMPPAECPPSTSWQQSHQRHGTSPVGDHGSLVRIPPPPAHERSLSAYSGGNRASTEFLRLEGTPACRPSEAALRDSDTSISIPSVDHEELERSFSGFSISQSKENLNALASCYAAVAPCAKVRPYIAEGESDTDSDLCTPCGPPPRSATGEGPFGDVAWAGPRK

CCN(CC)S(=O)(=O)c1ccc(N2CCOCC2)c(NC(=S)NC(=O)c2ccco2)c1
IC50 [1]: 0.824 µM (active)

CN(C)c1ccc(C(=S)N2CCN(Cc3ccccc3)CC2)cc1
IC50 [2]: 3.25 µM (active) | IC50 [3]: 23.6 µM (inactive) | IC50 [4]: 0.937 µM (active) | IC50 [5]: 45.6 µM (inactive)

Cc1noc(C)c1S(=O)(=O)Nc1ccc(C(=O)N2CCN(c3ccc(Cl)cc3)CC2)cc1
IC50 [6]: 11.7 µM (inactive)

COc1ccc(OCCNC(=O)C2(C)CCN2Cc2ccc3ccccc3c2)cc1 (centres undefined)
IC50 [7]: 9.8 µM (active) | IC50 (Steroidogenic factor 1): 6.42 µM (active) | IC50 [8]: 35.9 µM (inactive)

C=C1C(=O)C23C(O)C1CCC2C12CCCC(C)(COC(C)=O)C1C(O)C3(O)OC2 (centres undefined)
AC50 [9]: 0.771 µM (active) | AC50 [10]: 11.8 µM (active) | AC50 [11]: 3.84 µM (active) | IC50 [12]: 1.19 µM (active) | IC50 (Beta Lactamase): 22.1 µM (inactive) | AC50 (Paired box protein Pax-8): 1.86 µM (active) | AC50 [13]: 28.9 µM (active)

COc1ccc2c(c1)Cc1sc(NC(=O)c3cccnc3)nc1-2
IC50 [14]: 7.97 µM (active) | IC50 [15]: 3.66 µM (active) | IC50 (Caspase-3): 29.2 µM (active)
